Laboratory results taken from the NIST ThermoML archive (doi:10.1021/je5004912).
Numbers after ± are expanded uncertainties.

Assay: excess molar enthalpy (molar enthalpy of mixing); xn = mol fraction of the nth substance listed
Settings: 101 kPa, Liquid, Flow calorimetry

CC(C)CC(C)(C)C [2,2,4-trimethylpentane] + CCCO
excess molar enthalpy [kcal/mol]
Settings | 298.15 K | 313.15 K
x1 = 0.05 | 0.0208 ± 0.00239 | 0.0282 ± 0.00263
x1 = 0.1 | – | 0.0543 ± 0.00263
x1 = 0.1001 | 0.0399 ± 0.00239 | –
x1 = 0.1504 | – | 0.0784 ± 0.00263
x1 = 0.1505 | 0.0576 ± 0.00263 | –
x1 = 0.2002 | – | 0.1 ± 0.00263
x1 = 0.2003 | 0.0736 ± 0.00263 | –
x1 = 0.25 | – | 0.12 ± 0.00263
x1 = 0.2501 | 0.0882 ± 0.00263 | –
x1 = 0.2997 | – | 0.139 ± 0.00263
x1 = 0.2999 | 0.102 ± 0.00263 | –
x1 = 0.3498 | – | 0.156 ± 0.00287
x1 = 0.3499 | 0.114 ± 0.00263 | –
x1 = 0.4004 | – | 0.172 ± 0.00287
x1 = 0.4006 | 0.126 ± 0.00263 | –
x1 = 0.4502 | – | 0.185 ± 0.00287
x1 = 0.4503 | 0.136 ± 0.00263 | –
x1 = 0.4995 | – | 0.195 ± 0.00287
x1 = 0.4997 | 0.144 ± 0.00263 | –
x1 = 0.5503 | – | 0.203 ± 0.00287
x1 = 0.5504 | 0.151 ± 0.00263 | –
x1 = 0.5997 | – | 0.209 ± 0.00287
x1 = 0.5998 | 0.155 ± 0.00263 | –
x1 = 0.6498 | – | 0.211 ± 0.00287
x1 = 0.65 | 0.157 ± 0.00263 | –
x1 = 0.7007 | – | 0.211 ± 0.00287
x1 = 0.7008 | 0.157 ± 0.00263 | –
x1 = 0.7501 | – | 0.206 ± 0.00287
x1 = 0.7502 | 0.153 ± 0.00263 | –
x1 = 0.7993 | – | 0.197 ± 0.00287
x1 = 0.7994 | 0.146 ± 0.00263 | –
x1 = 0.8499 | 0.135 ± 0.00263 | 0.184 ± 0.00287
x1 = 0.8998 | 0.12 ± 0.00263 | 0.163 ± 0.00287
x1 = 0.9506 | 0.0937 ± 0.00263 | 0.124 ± 0.00287

CCCCCCC [heptane] + CCCO
excess molar enthalpy [kcal/mol]
Settings | 298.15 K | 313.15 K
x1 = 0.0503 | 0.0229 ± 0.00239 | 0.0292 ± 0.00263
x1 = 0.1001 | – | 0.0564 ± 0.00263
x1 = 0.1002 | 0.0435 ± 0.00263 | –
x1 = 0.15 | – | 0.081 ± 0.00263
x1 = 0.1501 | 0.0619 ± 0.00263 | –
x1 = 0.2 | – | 0.103 ± 0.00263
x1 = 0.2001 | 0.0786 ± 0.00263 | –
x1 = 0.2498 | – | 0.124 ± 0.00263
x1 = 0.2499 | 0.0935 ± 0.00263 | –
x1 = 0.3004 | 0.107 ± 0.00263 | 0.142 ± 0.00263
x1 = 0.3503 | – | 0.159 ± 0.00287
x1 = 0.3505 | 0.119 ± 0.00263 | –
x1 = 0.4003 | – | 0.174 ± 0.00287
x1 = 0.4005 | 0.13 ± 0.00263 | –
x1 = 0.4498 | – | 0.186 ± 0.00287
x1 = 0.4501 | 0.139 ± 0.00263 | –
x1 = 0.4996 | – | 0.196 ± 0.00287
x1 = 0.4997 | 0.147 ± 0.00263 | –
x1 = 0.5503 | – | 0.203 ± 0.00287
x1 = 0.5505 | 0.153 ± 0.00263 | –
x1 = 0.5995 | – | 0.208 ± 0.00287
x1 = 0.5996 | 0.157 ± 0.00263 | –
x1 = 0.6505 | – | 0.211 ± 0.00287
x1 = 0.6506 | 0.158 ± 0.00263 | –
x1 = 0.7004 | – | 0.209 ± 0.00287
x1 = 0.7005 | 0.157 ± 0.00263 | –
x1 = 0.7503 | – | 0.204 ± 0.00287
x1 = 0.7504 | 0.153 ± 0.00263 | –
x1 = 0.8 | – | 0.195 ± 0.00287
x1 = 0.8001 | 0.145 ± 0.00263 | –
x1 = 0.8492 | – | 0.18 ± 0.00287
x1 = 0.8493 | 0.134 ± 0.00263 | –
x1 = 0.8993 | 0.118 ± 0.00263 | 0.16 ± 0.00287
x1 = 0.9503 | 0.0913 ± 0.00263 | 0.123 ± 0.00287

C=CCCCC [hex-1-ene] + CCCO
excess molar enthalpy [kcal/mol]
Settings | 298.15 K | 313.15 K
x1 = 0.0501 | 0.0146 ± 0.00239 | 0.022 ± 0.00263
x1 = 0.1002 | – | 0.0445 ± 0.00263
x1 = 0.1003 | 0.0301 ± 0.00239 | –
x1 = 0.1501 | 0.0459 ± 0.00239 | 0.0667 ± 0.00263
x1 = 0.2001 | – | 0.0884 ± 0.00263
x1 = 0.2002 | 0.0612 ± 0.00263 | –
x1 = 0.2499 | – | 0.109 ± 0.00263
x1 = 0.2501 | 0.0762 ± 0.00263 | –
x1 = 0.3003 | – | 0.13 ± 0.00263
x1 = 0.3004 | 0.0913 ± 0.00263 | –
x1 = 0.3499 | – | 0.148 ± 0.00287
x1 = 0.3501 | 0.106 ± 0.00263 | –
x1 = 0.4006 | – | 0.166 ± 0.00287
x1 = 0.4007 | 0.119 ± 0.00263 | –
x1 = 0.4499 | – | 0.181 ± 0.00287
x1 = 0.4501 | 0.132 ± 0.00263 | –
x1 = 0.4998 | – | 0.195 ± 0.00287
x1 = 0.5001 | 0.142 ± 0.00263 | –
x1 = 0.5502 | – | 0.206 ± 0.00287
x1 = 0.5504 | 0.152 ± 0.00263 | –
x1 = 0.5996 | – | 0.214 ± 0.00287
x1 = 0.5998 | 0.159 ± 0.00287 | –
x1 = 0.6503 | – | 0.218 ± 0.00287
x1 = 0.6505 | 0.163 ± 0.00287 | –
x1 = 0.6996 | – | 0.22 ± 0.00287
x1 = 0.6998 | 0.165 ± 0.00287 | –
x1 = 0.75 | 0.163 ± 0.00287 | 0.217 ± 0.00287
x1 = 0.7998 | – | 0.209 ± 0.00287
x1 = 0.7999 | 0.158 ± 0.00287 | –
x1 = 0.8505 | 0.147 ± 0.00263 | 0.195 ± 0.00287
x1 = 0.9004 | 0.131 ± 0.00263 | 0.172 ± 0.00287
x1 = 0.9508 | 0.102 ± 0.00263 | 0.131 ± 0.00287
